Results from paper PMC7194404, “Arg-type dihydroflavonol 4-reductase genes from the fern Dryopteris erythrosora play important roles in the biosynthesis of anthocyanins” (PLoS ONE, 2020).

What was measured:
Experiment in all cases: HPLC of anthocyanidin formed from product, crude E. coli extract
Assay type in all cases: biochemical
Conditions in all cases: 0.8 mM substrate, 1.6 mM NADPH, 50 mM Tris-HCl pH 7.0, 30 °C, 30 min
DeDFR2 = target: T1, DeDFR2 (Dryopteris erythrosora, UniProt A0A5P8I1W3)
T1 construct: gene DFR2
T1 sequence (A0A5P8I1W3 1-341): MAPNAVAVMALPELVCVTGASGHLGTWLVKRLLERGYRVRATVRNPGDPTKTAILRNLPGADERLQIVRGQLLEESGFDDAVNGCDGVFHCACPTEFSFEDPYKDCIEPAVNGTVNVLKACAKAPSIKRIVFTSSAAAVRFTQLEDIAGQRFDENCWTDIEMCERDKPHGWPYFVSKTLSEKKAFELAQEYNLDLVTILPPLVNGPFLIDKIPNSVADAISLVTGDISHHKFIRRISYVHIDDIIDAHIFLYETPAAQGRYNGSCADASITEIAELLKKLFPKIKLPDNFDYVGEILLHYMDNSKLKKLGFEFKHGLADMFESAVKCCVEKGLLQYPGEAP

DeDFR1 = target: T2, DeDFR1 (Dryopteris erythrosora, UniProt A0A5P8I1X0)
T2 construct: gene DFR1
T2 sequence (A0A5P8I1X0 1-328): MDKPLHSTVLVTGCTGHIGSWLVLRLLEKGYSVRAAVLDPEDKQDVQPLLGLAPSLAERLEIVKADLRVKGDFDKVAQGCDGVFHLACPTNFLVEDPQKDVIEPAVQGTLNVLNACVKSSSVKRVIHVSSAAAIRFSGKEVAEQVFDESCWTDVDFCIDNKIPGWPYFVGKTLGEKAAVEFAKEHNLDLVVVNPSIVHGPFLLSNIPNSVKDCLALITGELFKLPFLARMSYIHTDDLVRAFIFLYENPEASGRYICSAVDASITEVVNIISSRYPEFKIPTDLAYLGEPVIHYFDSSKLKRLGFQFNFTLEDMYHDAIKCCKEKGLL

AtDFR = target: T3, AtDFR (Arabidopsis thaliana, UniProt P51102)
T3 construct: gene DFRA; pET28a-AtDFR, E. coli BL21(DE3), crude soluble extract
T3 sequence (P51102 1-382): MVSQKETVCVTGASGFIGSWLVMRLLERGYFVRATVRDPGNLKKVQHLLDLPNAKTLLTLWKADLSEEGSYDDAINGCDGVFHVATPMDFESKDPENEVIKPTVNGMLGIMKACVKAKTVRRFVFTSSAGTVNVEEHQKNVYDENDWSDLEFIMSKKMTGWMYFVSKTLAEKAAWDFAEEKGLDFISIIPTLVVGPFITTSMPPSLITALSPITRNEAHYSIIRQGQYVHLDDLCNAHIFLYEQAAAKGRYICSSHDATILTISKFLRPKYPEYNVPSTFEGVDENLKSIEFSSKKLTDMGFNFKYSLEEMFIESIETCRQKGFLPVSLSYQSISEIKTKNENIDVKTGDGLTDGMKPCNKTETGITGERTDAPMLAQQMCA

Structure (SMILES) | HPLC of anthocyanidin formed from product, crude E. coli extract (DeDFR2) | HPLC of anthocyanidin formed from product, crude E. coli extract (DeDFR1) | HPLC of anthocyanidin formed from product, crude E. coli extract (AtDFR)
O=C1c2c(O)cc(O)cc2O[C@H](c2ccc(O)cc2)[C@H]1O [DHK, dihydrokaempferol] | DeDFR1 and DeDFR2 had the ability to catalyze the DHK and DHQ reaction | DeDFR1 and DeDFR2 had the ability to catalyze the DHK and DHQ reaction | 
O=C1c2c(O)cc(O)cc2O[C@H](c2cc(O)c(O)c(O)c2)[C@H]1O [DHM, dihydromyricetin] |  |  | all three dihydroflavonols could be converted to pink anthocyanins
O=C1c2c(O)cc(O)cc2O[C@H](c2ccc(O)c(O)c2)[C@H]1O [DHQ, dihydroquercetin] | DeDFR1 and DeDFR2 had the ability to catalyze the DHK and DHQ reaction | DeDFR1 and DeDFR2 had the ability to catalyze the DHK and DHQ reaction | all three dihydroflavonols could be converted to pink anthocyanins
